Data reported in patent US5242942A, “Anticonvulsant fructopyranose cyclic sulfites and sulfates” (McNeilab, Inc., priority 1992, dated 1993).

Key:
tonic extensor seizure = assay: maximal electroshock test (MES); assay type: in vivo, mouse (albino male CRS-CD1); details: PO, mouse, 4 hr, read-out: % Block (MES Test, mouse)
Procedure: The compounds of formula (I) are particularly useful as anticonvulsant agents in mammals including humans. The anticonvulsant activity of the subject compounds was determined using a standard "maximal electroshock test" (MES). In this test, activity is indicated by a block of the […] extensor seizure caused by application of an electric shock to mice via corneal electrodes, as described by Swinyard et al. in J. Pharmacol. Expt. Ther. 1952, 106, 319, and recorded as % block. A more recent description of current anticonvulsant drug screening is given by Swinyard in Epilepsia 1978, 19, 409. The anticonvulsant activity of the compounds of this invention tested according to the Swinyard 1952 method is shown in the following Table I.
In the test, albino male CRS-CD1 mice weighing between 18-25 g were used in all experiments (obtained from Charles River). They were allowed food and water ad libitum and were used only once. The electroshock apparatus and the corneal electrodes were purchased from Wahlquist Instrument Company, Salt Lake City, Utah.
Maximal electroshock seizures were induced by the delivery of a 60 Hertz (Hz) current of 50 milliamps (mA) intensity to the mouse through corneal electrodes for 0.2 seconds as originally described by Swinyard et al. (1952). This stimulus intensity is approximately 4 to 6 times the current producing 100% tonic extensor convulsions. During the validation of the MES test, the duration of the various seizure components following maximal electroshock were measured as follows: hindleg tonic flexion was measured from the time of the application of the stimulus to the time of onset of hindleg tonic extension (i.e. when the hindlegs deviate by greater than an angle of 90° from the torso), hindleg tonic extensor was measured from the time of extensor thrust to the onset of generalized clonus, and terminal clonus was measured from the beginning to the end of bilateral rhythmic clonic jerking. Mortality was also recorded. The duration of each seizure component agreed well with the values previously reported by Tedeschi et al. in J. Pharmacol. Expt. Ther. 1955, 116, 107. The corneal electrodes were concave so that saline could be applied to the electrodes to reduce mortality. If this procedure is followed, mortality should always be less than 40% in control mice. Thus, at an electroshock stimulus of 60 Hz, 50 mA and 0.2 seconds duration, the order of convulsive components and the percentage of control animals displaying the behaviors should be as follows: tonic flexion (100%), tonic extension (100%) and clonus (100%) with less than 40% mortality.
For testing compounds, the abolition of the tonic extensor component was the endpoint. Animals were dosed orally (PO) with either vehicle or test drug and at a specified time were given a maximal electric shock through corneal electrodes blotted with saline (as described above). A minimum of 10 animals were used per group and the percentage of animals in the group without tonic hindlimb extension recorded. Determination of ED50 values (that dose of drug inhibiting 50% of the tonic extensor seizures) is shown below in Table I.

rat diuresis study = assay type: in vivo, rat (male Wistar); details: average of five animals; for Water Intake: control 15.0; for Urine Output: control 17.6
Description: Evidence for the inhibition of carbonic anhydrase by compounds of the formula (I) can also be obtained by a diuresis study, such as described by A. Weiner in Goodman and Gilman's The Pharmacological Basis of Therapeutics, 8th ed.; Goodman Gilman, A.; Rall, T. W.; Nies, A. S.; Taylor, P., Eds.; Pergamon Press: New York, 1990; pp 716-718. An increase in urine akalinity accompanied with an increase in water intake and urine output provides an indirect indication of carbonic anhydrase inhibition activity. Male Wistar rats having a weight of 250-300 g were dosed orally (PO) and housed in cages that allowed for the quantitative measure of fluid intake and urine output. Water intake and urine output were measured at 24 hours versus control, whereas urine pH, obtained via pH meter, was measured at 4 and 24 hours versus control. The results of this study, which are the average of five animals, are reported below in Table III. […] Such data is also an indication of the usefulness of the compounds of formula (I) as diuretics in the treatment of hypertension, congestive heart failure and other types of edema. The determination of suitable dosages for such compounds for the treatment of hypertension and congestive heart failure and other types of edema is within the skill of the art.

Total Acid Output = assay: pylorus-ligated rat test, gastric antisecretory activity; assay type: in vivo, rat (male Charles River Sprague-Dawley derived); details: IP, 200 mg/kg
Procedure: The gastric antisecretory activity of the compounds shown in Table II was determined by the pylorus-ligated rat test described by Shay et al. in Gastroenterol. 1954, 26, 906. In this method, male Charles River Sprague-Dawley derived rats weighing 150-300 grams were deprived of food but not water for 18-24 hours prior to use. Water was withheld during the experiment, however. The rats were weighed, lightly anesthetized with ether and the pylorus ligated according to the method of Shay et al., supra. The treatment or vehicle control was then administered intraperitoneally (IP) or orally (PO). When administered by the IP route, the administration was done 30 minutes before ligation. When administered by the PO route, the administration was done prior to ligation (about 1/2 to 3 hours before). Rats were housed two per cage and sacrificed with carbon dioxide 3 hours after ligation. Their stomachs were removed, rinsed, and contents emptied into a graduated centrifuge tube. The tubes were centrifuged, the volume of gastric juice was recorded, and any samples obviously contaminated by feces, food or blood were eliminated. A 1 mL aliquot of gastric juice was titrated with 0.1N NaOH to a pH of 7.0-7.4. The volume of gastric juice secreted, the acid concentration, and the product of the volume times the concentration, i.e. the total amount of acid secreted, were measured. The total acid output was calculated by multiplying the volume of gastric juices collected times the hydrogen ion concentration (amount of NaOH added to a sample to reach a pH of 7.0-7.4) and dividing that value by 10. The mean value of the total acid output for a control group of rats was then subtracted from the mean value of the total acid output for the group of rats tested at the same dose. That value was then divided by the mean value of total acid output for the control group and the resulting number was multiplied by 100 to provide a Percent Inhibition value, which values are reported in Table II. The […] was determined statistically as the dose at which a 50% inhibition would be realized.

**Q.** With `CC1(C)O[C@H]2[C@@H]3OS(=O)(=O)O[C@@H]3CO[C@@]2(COS(=O)(=O)NC2CCC2)O1` [Example 10, 2,3-O-(1-Methylethylidene)-4,5-O-sulfonyl-β-D-fructopyranose Cyclobutylsulfamate] as the molecule, how does the responders at 10 mg/kg (tonic extensor seizure) read?
**A.** Its responders at 10 mg/kg is 90%.

**Q.** Which “Urine pH” value (rat diuresis study; 1.2 mg/kg PO, 4 hours, control 6.98) does the source give for `CCNS(=O)(=O)OC[C@@]12OC[C@H]3OS(=O)(=O)O[C@H]3[C@@H]1OC(C)(C)O2` [Example 5, 2,3-O-(1-Methylethylidene)-4,5-O-sulfonyl-β-D-fructopyranose Ethylsulfamate] here?
**A.** The value was 9.03.

**Q.** And the “Urine pH” value (rat diuresis study; 1.2 mg/kg PO, 24 hours, control 6.43)?
**A.** The value was 6.41.

**Q.** And the “Water Intake” value (rat diuresis study; 1.2 mg/kg PO, 24 hours)?
**A.** The value was 15.8 mL.

**Q.** And the “Urine Output” value (rat diuresis study; 1.2 mg/kg PO, 24 hours)?
**A.** The value was 19.9 mL.

**Q.** And the responders at 10 mg/kg (tonic extensor seizure)?
**A.** The responders at 10 mg/kg was 100%.

**Q.** Which responders at 35 mg/kg (tonic extensor seizure) does the source give for `CC1(C)O[C@H]2[C@@H]3O[S@](=O)O[C@@H]3CO[C@@]2(COS(N)(=O)=O)O1` [Example 17, (R)-2,3-O-(1-Methylethylidene)-4,5-O-sulfinyl-β-D-fructopyranose Sulfamate] here?
**A.** The responders at 35 mg/kg was 90%.

**Q.** With `CCC1(CC)O[C@H]2[C@@H]3OS(=O)(=O)O[C@@H]3CO[C@@]2(COS(N)(=O)=O)O1` [Example 18, 2,3-O-(1-Ethylpropylidene)-4,5-O-sulfonyl-β-D-fructopyranose Sulfamate] as the molecule, how does the responders at 75 mg/kg (tonic extensor seizure) read?
**A.** The responders at 75 mg/kg was 100%.

**Q.** For `CC1(C)O[C@H]2[C@@H]3O[S@@](=O)O[C@@H]3CO[C@@]2(COS(N)(=O)=O)O1` [Example 16, (S)-2,3-O-(1-Methylethylidene)-4,5 -O-sulfinyl-β-D-fructopyranose Sulfamate], which responders at 75 mg/kg (tonic extensor seizure) is on record?
**A.** Its responders at 75 mg/kg is 40%.

**Q.** For `Cc1ccc(S(=O)(=O)N=S2O[C@@H]3[C@@H](CO[C@@]4(COS(N)(=O)=O)OC(C)(C)O[C@@H]34)O2)cc1` (stereo partly drawn) [Example 19, 2,3-O-(1-Methylethylidene)-4,5-O-[N-(4-methylbenzenesulfonyl)imidosulfinyl]-β-D-fructopyranose Sulfamate], which responders at 300 mg/kg (tonic extensor seizure) is on record?
**A.** The responders at 300 mg/kg was 80%.

**Q.** With `CC1(C)O[C@H]2[C@@H]3OS(=O)(=O)O[C@@H]3CO[C@@]2(COS(=O)(=O)N=[N+]=[N-])O1` [Example 15, 2,3-O-(1-Methylethylidene)-4,5-O-sulfonyl-β-D-fructopyranose Azidosulfate] as the molecule, how does the “Percent Inhibition of Total Acid Output” value (Total Acid Output) read?
**A.** The value was 96%.

**Q.** And the responders at 35 mg/kg (tonic extensor seizure)?
**A.** The responders at 35 mg/kg was 100%.

**Q.** For `CC1(C)O[C@H]2[C@@H]3OS(=O)(=O)O[C@@H]3CO[C@@]2(COS(=O)(=O)NCc2ccccc2)O1` [Example 8, 2,3-O-(1-Methylethylidene)-4,5-O-sulfonyl-β-D-fructopyranose Phenylmethylsulfamate], which responders at 75 mg/kg (tonic extensor seizure) is on record?
**A.** Its responders at 75 mg/kg is 100%.

**Q.** For `CNS(=O)(=O)OC[C@@]12OC[C@H]3OS(=O)(=O)O[C@H]3[C@@H]1OC(C)(C)O2` [Example 3, 2,3-O-(1-Methylethylidene)-4,5-O-sulfonyl-β-D-fructopyranose Methylsulfamate], which “Urine pH” value (rat diuresis study; 2.7 mg/kg PO, 4 hours, control 6.98) is on record?
**A.** Its value is 9.02.

**Q.** And the “Urine pH” value (rat diuresis study; 2.7 mg/kg PO, 24 hours, control 6.43)?
**A.** The value was 6.78.

**Q.** What about the “Water Intake” value (rat diuresis study; 2.7 mg/kg PO, 24 hours) of the same molecule?
**A.** Its value is 23.6 mL.

**Q.** And the “Urine Output” value (rat diuresis study; 2.7 mg/kg PO, 24 hours)?
**A.** The value was 28.8 mL.

**Q.** What about the responders at 10 mg/kg (tonic extensor seizure) of the same molecule?
**A.** Its responders at 10 mg/kg is 100%.

**Q.** With `CC1(C)O[C@@H]2[C@H]3OS(=O)(=O)O[C@H]3CO[C@]2(COS(N)(=O)=O)O1` [Example 2, 2,3-O-(1-Methylethylidene)-4,5-O-sulfonyl-β-L-fructopyranose Sulfamate] as the molecule, how does the responders at 75 mg/kg (tonic extensor seizure) read?
**A.** The responders at 75 mg/kg was 80%.

**Q.** Which responders at 10 mg/kg (tonic extensor seizure) does the source give for `CCN(CC)S(=O)(=O)OC[C@@]12OC[C@H]3OS(=O)(=O)O[C@H]3[C@@H]1OC(C)(C)O2` [Example 14, 2,3-O-(1-Methylethylidene)-4,5-O-sulfonyl-β-D-fructopyranose Diethylsulfamate] here?
**A.** Its responders at 10 mg/kg is 10%.

**Q.** With `Cc1ccc(S(=O)(=O)N=S2(=O)O[C@@H]3[C@@H](CO[C@@]4(COS(N)(=O)=O)OC(C)(C)O[C@@H]34)O2)cc1` (stereo partly drawn) [Example 20, 2,3-O-(1-Methylethylidene)-4,5-O-[N-(4-methylbenzenesulfonyl)imidosulfonyl]-β-D-fructopyranose Sulfamate] as the molecule, how does the responders at 300 mg/kg (tonic extensor seizure) read?
**A.** The responders at 300 mg/kg was 75%.

**Q.** With `CC1(C)O[C@H]2[C@@H]3OS(=O)(=O)O[C@@H]3CO[C@@]2(COS(=O)(=O)NCC(F)(F)F)O1` [Example 12, 2,3-O-(1-Methylethylidene)-4,5-O-sulfonyl-β-D-fructopyranose (2,2,2-Trifluoroethyl)sulfamate] as the molecule, how does the responders at 10 mg/kg (tonic extensor seizure) read?
**A.** Its responders at 10 mg/kg is 40%.

**Q.** With `C=CCNS(=O)(=O)OC[C@@]12OC[C@H]3OS(=O)(=O)O[C@H]3[C@@H]1OC(C)(C)O2` [Example 7, 2,3-O-(1-Methylethylidene)-4,5-O-sulfonyl-β-D-fructopyranose 2-Propenylsulfamate] as the molecule, how does the responders at 10 mg/kg (tonic extensor seizure) read?
**A.** The responders at 10 mg/kg was 70%.

**Q.** With `CCCCCCCCNS(=O)(=O)OC[C@@]12OC[C@H]3OS(=O)(=O)O[C@H]3[C@@H]1OC(C)(C)O2` [Example 6, 2,3-O-(1-Methylethylidene)-4,5-O-sulfonyl-β-D-fructopyranose Octylsulfamate] as the molecule, how does the responders at 75 mg/kg (tonic extensor seizure) read?
**A.** Its responders at 75 mg/kg is 100%.

**Q.** Which “Percent Inhibition of Total Acid Output” value (Total Acid Output) does the source give for `NS(=O)(=O)OC[C@@]12OC[C@H]3OS(=O)(=O)O[C@H]3[C@@H]1OC1(CCCCC1)O2` [Example 21, 2,3-O-(Cyclohexylidene)-4,5-O-sulfonyl-β-D-fructopyranose Sulfamate] here?
**A.** The value was 27%.

**Q.** For `CN(C)S(=O)(=O)OC[C@@]12OC[C@H]3OS(=O)(=O)O[C@H]3[C@@H]1OC(C)(C)O2` [Example 13, 2,3-O-(1-Methylethylidene)-4,5-O-sulfonyl-β-D-fructopyranose Dimethylsulfamate], which “Urine pH” value (rat diuresis study; 2.1 mg/kg PO, 4 hours, control 6.98) is on record?
**A.** The value was 8.93.

**Q.** And the “Urine pH” value (rat diuresis study; 2.1 mg/kg PO, 24 hours, control 6.43)?
**A.** The value was 6.81.

**Q.** And the “Water Intake” value (rat diuresis study; 2.1 mg/kg PO, 24 hours)?
**A.** The value was 21 mL.

**Q.** What about the “Urine Output” value (rat diuresis study; 2.1 mg/kg PO, 24 hours) of the same molecule?
**A.** Its value is 23.2 mL.

**Q.** What about the responders at 10 mg/kg (tonic extensor seizure) of the same molecule?
**A.** Its responders at 10 mg/kg is 70%.

**Q.** Which responders at 35 mg/kg (tonic extensor seizure) does the source give for `CCCCNS(=O)(=O)OC[C@@]12OC[C@H]3OS(=O)(=O)O[C@H]3[C@@H]1OC(C)(C)O2` [Example 4, 2,3-O-(1-Methylethylidene)-4,5-O-sulfonyl-β-D-fructopyranose Butylsulfamate] here?
**A.** The responders at 35 mg/kg was 100%.
